The subject of test [1] is H295R human adrenal tumor cells. Nature of the test: MTT cell viability / mitochondrial function, H295R cells. In kind it is cell-based. The note with it: H295R cells exposed to dbcAMP. Here is the method:
Cell viability at the end of the incubation protocol described above was assessed using the mitochondrial integrity 3-(4,5-dimethylthiazol-2-yl)-2,5-diphenyl tetrazolium bromide (MTT) assay (Trevigen, Gaithersburg, Md.). Briefly, 10 l of the MTT solution were added to the cells in 100 l medium. After an incubation period of 4 hours, 100 l of detergent were added and cells were incubated overnight at 37° C. Formazan blue formation was quantified at 600 nm and 690 nm using the Victor quantitative detection spectrophotometer (EGG-Wallac, Gaithersburg, Md.) and the results expressed as (OD600-OD690).

Test [2] deals with peripheral-type benzodiazepine receptor (PBR). Put plainly: PBR radioligand binding assay ([3H]PK 11195) in procaine-treated cells. The note with it: 1 μM procaine, 48 hour treatment. Here is the method:
Radioligand binding assays were performed as previously described (Papadopoulos et al., 1990, J. Biol. Chem. 265, 3772-3779). In brief, cells were scrapped from culture flasks into PBS, dispersed by trituration, and centrifuged at 1200×g for 5 min. The cells were resuspended in PBS to a final concentration of 10-50 μg protein/100 μl. Saturation binding studies were performed in a final volume of 300 μl in the presence of the radioligand [^3H]PK 11195 (specific activity 83.5 Ci/mmol; NEN Life Science Products) at the indicated concentrations. Nonspecific binding was determined in the presence of 6 μM of the homologous non-radioactive ligand. After 180 min incubation at 4° C., the assays were stopped by filtration through Whatman GF/C filters (Clifton, N.J.) and washed with 10 ml PBS. Bound radioactivity was determined by liquid scintillation counting. Bound [^3H]PK 11195 and [^3H]cholesterol were quantified by liquid scintillation spectrometry. Dissociation constants (Kd), the number of binding sites (Bmax) and Hill coefficients (nH) for PK 11195 and cholesterol were determined by Curve-Fit (Prism version 3.0, GraphPad Software Inc., San Diego, Calif.).

The target of another test is T1, HMG-CoA reductase (Mus musculus, UniProt Q01237).
T1 construct: endogenous in cells; host or cells: Y1 mouse adrenal tumor cells (Brij 96 extract; sonicated homogenate for the direct test)
T1 sequence (Q01237 1-887): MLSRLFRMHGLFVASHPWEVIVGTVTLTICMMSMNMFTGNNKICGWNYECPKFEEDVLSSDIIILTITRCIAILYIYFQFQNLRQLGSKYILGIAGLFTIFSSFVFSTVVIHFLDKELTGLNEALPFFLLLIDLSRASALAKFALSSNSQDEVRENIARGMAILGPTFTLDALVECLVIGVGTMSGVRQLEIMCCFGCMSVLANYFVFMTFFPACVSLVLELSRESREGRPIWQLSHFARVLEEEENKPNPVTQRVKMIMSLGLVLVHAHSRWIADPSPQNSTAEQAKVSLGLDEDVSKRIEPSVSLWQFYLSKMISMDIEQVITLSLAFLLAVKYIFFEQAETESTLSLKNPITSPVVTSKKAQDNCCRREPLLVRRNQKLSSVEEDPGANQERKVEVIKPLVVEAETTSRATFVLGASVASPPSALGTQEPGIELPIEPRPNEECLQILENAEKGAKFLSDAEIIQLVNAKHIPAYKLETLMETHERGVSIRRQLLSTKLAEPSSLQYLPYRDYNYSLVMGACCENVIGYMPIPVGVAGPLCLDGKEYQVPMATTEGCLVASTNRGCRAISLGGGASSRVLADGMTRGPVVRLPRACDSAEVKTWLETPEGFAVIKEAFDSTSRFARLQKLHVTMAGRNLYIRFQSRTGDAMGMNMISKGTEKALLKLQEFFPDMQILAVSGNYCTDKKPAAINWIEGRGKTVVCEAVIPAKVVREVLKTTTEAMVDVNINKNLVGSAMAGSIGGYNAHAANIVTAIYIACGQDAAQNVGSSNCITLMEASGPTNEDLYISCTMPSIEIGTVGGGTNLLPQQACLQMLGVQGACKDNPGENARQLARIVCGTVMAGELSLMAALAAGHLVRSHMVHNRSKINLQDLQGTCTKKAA
Put plainly: Direct effect on HMG-CoA reductase activity in sonicated Y1 cell homogenates. The note with it: control 10.1±0.9. Format: biochemical. Here is the method:
Cells were washed twice with ice-cold PBS and incubated with ice-cold assay buffer (0.1M sucrose, 40 mM KH2PO4, 30 mM EDTA, 50 mM KCl, 5 mM DTT, 0.25% (v/v) of Brij 96, at pH 7.4) on ice for 20 minutes. After centrifugation for 3 minutes at 14000 g (4° C.) the supernatants were collected and used for HMG-CoA reductase activity assay. The total 150 l assay mixture contained 100-200 g protein and the NADPH-generating system (2.5 mM NADP, 20 mM glucose 6-phosphate and 20 U/ml glucose 6-phosphate dehydrogenase). The reaction was started by adding substrate (^14C-HMG-CoA, 0.1 Ci) and stopped after 45 minutes by adding 10-1 of HCl 6M. ^3H-mevalonolactone was also added to the samples as an extraction recovery marker. After an additional 30 minutes incubation time, to allow complete lactonization of the product, the mixture was centrifuged. The supernatant was applied to Bond-Elut NH2 column and eluted with 1 ml of toluene/acetone (3:1). The eluate was discarded and further 4 ml of toluene/acetone was applied to the column and collected in a scintillation vial for counting ^14C-mevalonate and 3H-mevalonolactone signals (Berkhout et al., 1990).
In separate experiments cells were disrupted by sonication and then treated with procaine. The direct effect of the treatment on HMG-CoA reductase activity in the homogenates was determined as described above.

Another test concerns HMG-CoA reductase mRNA. Put plainly: HMG-CoA reductase mRNA expression by Q-PCR in Hepa1-6 cells. The note with it: Hepa1-6 mouse liver hepatoma cells. In kind it is cell-based. The procedure: After treatment, cells were stimulated with 1 mM dbcAMP for 24 hours. At the end of the incubation, total cell RNA was extracted using. RNA STAT-60 (Tel-Test Inc, Friendswood, Tex.) according to the manufacturer's instructions. HMG-CoA reductase mRNA was quantified by Q-PCR using the ABI Prism 7700 sequence detection system (Perlin-Elmer/Applied Biosystems, Foster City, Calif.). RT reaction was performed using TaqMan® Reverse Transcription Reagents with 1 g total RNA and random hexamers as primers for each reaction according to the manufacturer's instructions. For quantifying mouse HMG-CoA reductase mRNA with Q-PCR, the primers were designed according to GenBank Accession Number BC 019782 using PE/AB Primer Express software, which is specifically designed for the selection of primers and probes. The forward primer was 5′-[…]-3′ (22 nucleotides) and reverse primer was 5′-[…]-3′ (23 nucleotides), respectively. The primers were synthesized by Bio-Synthesis Inc. (Lewisville, Tex.). Reactions were performed in a reaction mixture consisting of a 20 l volume solution containing 10 l SYBR® Green PCR Master Mix and 1 l primers mix (5 M each) with 2 l cDNA.

Entries after “also recorded” stand apart in the source; their conditions may differ.

Take `CCN(CC)CCOC(=O)c1ccc(N)cc1` [procaine]: the “dbcAMP-induced change of mitochondrial function (MTT)” value is given as “reversed the effect of dbcAMP on mitochondrial function” in test [1] and “protected against the dbc-AMP-induced change of mitochondrial function” in test [1] (listed as Procaine). Moreover, the “ligand binding characteristics / expression of PBR” value is “did not affect” in test [2] and “had no effect” in test [2] (listed as Procaine). Also, the “PBR Kd of [3H]PK 11195 in procaine-treated cells” value in test [2] (control 1.8 nM, Kd of the radioligand, not of procaine) is reported as 1.7 nM. In test [2] (control 27±3), the “PBR Bmax ([3H]PK 11195) in procaine-treated cells” value was 29±4 pmol/mg protein. Further, the “HMG-CoA reductase activity in sonicated cells” value on HMG-CoA reductase (1 μM procaine) was determined as 9.9±0.01 pmol/min/mg protein; at HMG-CoA reductase (10 μM procaine) it was 10.3±0.6 pmol/min/mg protein; on HMG-CoA reductase (100 μM procaine) it was 10.1±0.1 pmol/min/mg protein. For the same compound, in the test with HMG-CoA reductase mRNA, the “dbcAMP-induced HMG-CoA reductase mRNA levels” value was “inhibited; also recorded: robust”.

Values taken from US20060194815A1, “Methods and compositions for modulating serum cortisol levels” (priority 2003, published 2006).
